Test results taken from article PMC4526387 (Clinical cancer research : an official journal of the …, 2015).
Read-outs that look alike come from different tables or passages of the source.

How the values were obtained:
[1] = test system: metastatic renal cell carcinoma (mRCC); conditions: subset with one prior VEGF-TKI; ref RECORD-1 trial; cited from earlier work
[2] = test system: metastatic renal cell carcinoma (mRCC); assay: Randomized phase II: 6MPFS, PFS, response; assay type: in vivo, human
[3] = Randomized phase II: adverse events; assay type: in vivo, human
[4] = cited from earlier work
[5] = Phase I PK of everolimus in whole blood; assay type: in vivo, human; conditions: 6-hour collection interval, everolimus 10 mg daily
[6] = test system: metastatic renal cell carcinoma (mRCC); conditions: subset with one prior VEGF-TKI; ref AXIS trial; cited from earlier work
[7] = test system: metastatic renal cell carcinoma (mRCC); assay type: in vivo, human; conditions: rise in MMP-9 and SCF and fall in SHBG and SAP
advanced solid tumors = conditions: 21 patients, cited from earlier work

Structure (SMILES): CO[C@H]1C[C@@H]2CC[C@@H](C)[C@@](O)(O2)C(=O)C(=O)N2CCCC[C@H]2C(=O)O[C@H]([C@H](C)C[C@@H]2CC[C@@H](OCCO)[C@H](OC)C2)CC(=O)[C@H](C)/C=C(\C)[C@@H](O)[C@@H](OC)C(=O)[C@H](C)C[C@H](C)/C=C/C=C/C=C/1C [everolimus]
- median PFS [1]: 5.4 months
- 6-month progression-free survival (6MPFS) ([2]; phase II): 30.30%
- partial responses (number) ([2]; phase II): 2
- median PFS amongst patients with liver metastasis ([2]; phase II exploratory analysis): 2.8 months
- Abdominal pain % ([3]; % of arm): 10.4%
- Acneiform rash % ([3]; % of arm): 10.4%
- Anorexia % ([3]; % of arm): 23.9%
- Back pain % ([3]; % of arm): 26.9%
- Constipation % ([3]; % of arm): 22.4%
- Cough % ([3]; % of arm): 20.9%
- Diarrhea % ([3]; % of arm): 23.9%
- Dyspnea % ([3]; % of arm): 31.3%
- Epistaxis/Respiratory tract hemorrhage % ([3]; % of arm): 11.9%
- Extremity pain % ([3]; % of arm): 13.4%
- Fatigue % ([3]; % of arm): 44.8%
- Fever % ([3]; % of arm): 17.9%
- Headache % ([3]; % of arm): 16.4%
- Insomnia % ([3]; % of arm): 16.4%
- Lower extremity % ([3]; % of arm): 19.4%
- Nausea % ([3]; % of arm): 23.9%
- Nausea/Vomiting % ([3]; % of arm): 16.4%
- Proteinuria % ([3]; % of arm): 14.9%
- Pruritus % ([3]; % of arm): 7.5%
- Rash % ([3]; % of arm): 22.4%
- Skin changes % ([3]; % of arm): 20.9%
- Stomatitis % ([3]; % of arm): 28.4%
- Taste alteration % ([3]; % of arm): 14.9%
- Elevated ALT % ([3]; laboratory, % of arm): 10.4%
- Elevated AST % ([3]; laboratory, % of arm): 11.9%
- Elevated alkaline phosphatise % ([3]; laboratory, % of arm): 14.9%
- Elevated creatinine % ([3]; laboratory, % of arm): 11.9%
- Hypercholesterolemia % ([3]; laboratory, % of arm): 28.4%
- Hyperglycemia % ([3]; laboratory, % of arm): 25.4%
- Hypertriglyceridemia % ([3]; laboratory, % of arm): 31.3%
- Hyponatremia % ([3]; laboratory, % of arm): 11.9%
- Low hemoglobin % ([3]; laboratory, % of arm): 37.3%
- Thrombocytopenia % ([3]; laboratory, % of arm): 14.9%
- Elevated ALT Grade 1/2 ([3]; laboratory, number of patients): 7
- Elevated ALT Grade 3/4 ([3]; laboratory, number of patients): 0
- Elevated ALT Grade 5 ([3]; laboratory, number of patients): 0
- Elevated ALT Total ([3]; laboratory, number of patients): 7
- Elevated AST Grade 1/2 ([3]; laboratory, number of patients): 8
- Elevated AST Grade 3/4 ([3]; laboratory, number of patients): 0
- Elevated AST Grade 5 ([3]; laboratory, number of patients): 0
- Elevated AST Total ([3]; laboratory, number of patients): 8
- Elevated alkaline phosphatise Grade 1/2 ([3]; laboratory, number of patients): 9
- Elevated alkaline phosphatise Grade 3/4 ([3]; laboratory, number of patients): 1
- Elevated alkaline phosphatise Grade 5 ([3]; laboratory, number of patients): 0
- Elevated alkaline phosphatise Total ([3]; laboratory, number of patients): 10
- Elevated creatinine Grade 1/2 ([3]; laboratory, number of patients): 5
- Elevated creatinine Grade 3/4 ([3]; laboratory, number of patients): 3
- Elevated creatinine Grade 5 ([3]; laboratory, number of patients): 0
- Elevated creatinine Total ([3]; laboratory, number of patients): 8
- Hypercholesterolemia Grade 1/2 ([3]; laboratory, number of patients): 19
- Hypercholesterolemia Grade 3/4 ([3]; laboratory, number of patients): 0
- Hypercholesterolemia Grade 5 ([3]; laboratory, number of patients): 0
- Hypercholesterolemia Total ([3]; laboratory, number of patients): 19
- Hyperglycemia Grade 1/2 ([3]; laboratory, number of patients): 12
- Hyperglycemia Grade 3/4 ([3]; laboratory, number of patients): 5
- Hyperglycemia Grade 5 ([3]; laboratory, number of patients): 0
- Hyperglycemia Total ([3]; laboratory, number of patients): 17
- Hypertriglyceridemia Grade 1/2 ([3]; laboratory, number of patients): 17
- Hypertriglyceridemia Grade 3/4 ([3]; laboratory, number of patients): 4
- Hypertriglyceridemia Grade 5 ([3]; laboratory, number of patients): 0
- Hypertriglyceridemia Total ([3]; laboratory, number of patients): 21
- Hyponatremia Grade 1/2 ([3]; laboratory, number of patients): 5
- Hyponatremia Grade 3/4 ([3]; laboratory, number of patients): 3
- Hyponatremia Grade 5 ([3]; laboratory, number of patients): 0
- Hyponatremia Total ([3]; laboratory, number of patients): 8
- Low hemoglobin Grade 1/2 ([3]; laboratory, number of patients): 19
- Low hemoglobin Grade 3/4 ([3]; laboratory, number of patients): 6
- Low hemoglobin Grade 5 ([3]; laboratory, number of patients): 0
- Low hemoglobin Total ([3]; laboratory, number of patients): 25
- Thrombocytopenia Grade 1/2 ([3]; laboratory, number of patients): 8
- Thrombocytopenia Grade 3/4 ([3]; laboratory, number of patients): 2
- Thrombocytopenia Grade 5 ([3]; laboratory, number of patients): 0
- Thrombocytopenia Total ([3]; laboratory, number of patients): 10
- Abdominal pain Grade 1/2 ([3]; number of patients): 5
- Abdominal pain Grade 3/4 ([3]; number of patients): 2
- Abdominal pain Grade 5 ([3]; number of patients): 0
- Abdominal pain Total ([3]; number of patients): 7
- Acneiform rash Grade 1/2 ([3]; number of patients): 7
- Acneiform rash Grade 3/4 ([3]; number of patients): 0
- Acneiform rash Grade 5 ([3]; number of patients): 0
- Acneiform rash Total ([3]; number of patients): 7
- Anorexia Grade 1/2 ([3]; number of patients): 15
- Anorexia Grade 3/4 ([3]; number of patients): 1
- Anorexia Grade 5 ([3]; number of patients): 0
- Anorexia Total ([3]; number of patients): 16
- Back pain Grade 1/2 ([3]; number of patients): 12
- Back pain Grade 3/4 ([3]; number of patients): 6
- Back pain Grade 5 ([3]; number of patients): 0
- Back pain Total ([3]; number of patients): 18
- Constipation Grade 1/2 ([3]; number of patients): 15
- Constipation Grade 3/4 ([3]; number of patients): 0
- Constipation Grade 5 ([3]; number of patients): 0
- Constipation Total ([3]; number of patients): 15
- Cough Grade 1/2 ([3]; number of patients): 13
- Cough Grade 3/4 ([3]; number of patients): 1
- Cough Grade 5 ([3]; number of patients): 0
- Cough Total ([3]; number of patients): 14
- Diarrhea Grade 1/2 ([3]; number of patients): 16
- Diarrhea Grade 3/4 ([3]; number of patients): 0
- Diarrhea Grade 5 ([3]; number of patients): 0
- Diarrhea Total ([3]; number of patients): 16
- Dyspnea Grade 1/2 ([3]; number of patients): 17
- Dyspnea Grade 3/4 ([3]; number of patients): 4
- Dyspnea Grade 5 ([3]; number of patients): 0
- Dyspnea Total ([3]; number of patients): 21
- Epistaxis/Respiratory tract hemorrhage Grade 1/2 ([3]; number of patients): 8
- Epistaxis/Respiratory tract hemorrhage Grade 3/4 ([3]; number of patients): 0
- Epistaxis/Respiratory tract hemorrhage Grade 5 ([3]; number of patients): 0
- Epistaxis/Respiratory tract hemorrhage Total ([3]; number of patients): 8
- Extremity pain Grade 1/2 ([3]; number of patients): 8
- Extremity pain Grade 3/4 ([3]; number of patients): 1
- Extremity pain Grade 5 ([3]; number of patients): 0
- Extremity pain Total ([3]; number of patients): 9
- Fatigue Grade 1/2 ([3]; number of patients): 24
- Fatigue Grade 3/4 ([3]; number of patients): 6
- Fatigue Grade 5 ([3]; number of patients): 0
- Fatigue Total ([3]; number of patients): 30
- Fever Grade 1/2 ([3]; number of patients): 10
- Fever Grade 3/4 ([3]; number of patients): 2
- Fever Grade 5 ([3]; number of patients): 0
- Fever Total ([3]; number of patients): 12
- Headache Grade 1/2 ([3]; number of patients): 10
- Headache Grade 3/4 ([3]; number of patients): 1
- Headache Grade 5 ([3]; number of patients): 0
- Headache Total ([3]; number of patients): 11
- Insomnia Grade 1/2 ([3]; number of patients): 11
- Insomnia Grade 3/4 ([3]; number of patients): 0
- Insomnia Grade 5 ([3]; number of patients): 0
- Insomnia Total ([3]; number of patients): 11
- Lower extremity Grade 1/2 ([3]; number of patients): 13
- Lower extremity Grade 3/4 ([3]; number of patients): 0
- Lower extremity Grade 5 ([3]; number of patients): 0
- Lower extremity Total ([3]; number of patients): 13
- Nausea Grade 1/2 ([3]; number of patients): 14
- Nausea Grade 3/4 ([3]; number of patients): 2
- Nausea Grade 5 ([3]; number of patients): 0
- Nausea Total ([3]; number of patients): 16
- Nausea/Vomiting Grade 1/2 ([3]; number of patients): 9
- Nausea/Vomiting Grade 3/4 ([3]; number of patients): 2
- Nausea/Vomiting Grade 5 ([3]; number of patients): 0
- Nausea/Vomiting Total ([3]; number of patients): 11
- Proteinuria Grade 1/2 ([3]; number of patients): 10
- Proteinuria Grade 3/4 ([3]; number of patients): 0
- Proteinuria Grade 5 ([3]; number of patients): 0
- Proteinuria Total ([3]; number of patients): 10
- Pruritus Grade 1/2 ([3]; number of patients): 4
- Pruritus Grade 3/4 ([3]; number of patients): 1
- Pruritus Grade 5 ([3]; number of patients): 0
- Pruritus Total ([3]; number of patients): 5
- Rash Grade 1/2 ([3]; number of patients): 15
- Rash Grade 3/4 ([3]; number of patients): 0
- Rash Grade 5 ([3]; number of patients): 0
- Rash Total ([3]; number of patients): 15
- Skin changes Grade 1/2 ([3]; number of patients): 11
- Skin changes Grade 3/4 ([3]; number of patients): 3
- Skin changes Grade 5 ([3]; number of patients): 0
- Skin changes Total ([3]; number of patients): 14
- Stomatitis Grade 1/2 ([3]; number of patients): 13
- Stomatitis Grade 3/4 ([3]; number of patients): 6
- Stomatitis Grade 5 ([3]; number of patients): 0
- Stomatitis Total ([3]; number of patients): 19
- Taste alteration Grade 1/2 ([3]; number of patients): 10
- Taste alteration Grade 3/4 ([3]; number of patients): 0
- Taste alteration Grade 5 ([3]; number of patients): 0
- Taste alteration Total ([3]; number of patients): 10
- half-life [4]: 26 to 38 h
- mean trough concentration at steady state ([4]; patients who received 10 mg everolimus daily): 13.2 ng/mL
- overall mean concentration [5]: 17.8 ng/mL

Structure (SMILES): CNC(=O)c1ccccc1Sc1ccc2c(/C=C/c3ccccn3)n[nH]c2c1 [axitinib]
- median PFS [6]: 4.8 months

Structure (SMILES): COc1cc(C(=O)c2c(C)oc3c(OP(=O)([O-])[O-])c(OC)ccc23)cc(OC)c1OC.[Na+].[Na+] [BNC105P]
- patients progression free at 6 months, selected population [7]: 60%
- objective responses (advanced solid tumors): no objective responses
- patients with stable disease (SD) as best response (advanced solid tumors): 4 patients
- intravenous dose identified for further studies (advanced solid tumors; days 1 and 8 of a 21-day cycle): 16 mg/m^2
